Measurements reported in PMC3610872, “Full and Partial Agonists of Thromboxane Prostanoid Receptor Unveil Fine Tuning of Receptor Superactive Conformation and G Protein Activation” (PLoS ONE, 2013).
Residue numbers refer to the chain shown, from its start. Each block holds one molecule with its values, some of them ahead of it.

Assays:
[1] = target: T1, WT human TP receptor (Homo sapiens, UniProt P21731); assay: [3H]SQ29,548 radioligand binding (mixed-type and heterologous competition), WT receptor; details: HEK293 cells, competition vs 1 nM [3H]SQ29,548, 25°C 30 min, value ±%CV
T1 construct: expressed in transfected cells; host or cells: HEK293
T1 sequence (P21731 1-343): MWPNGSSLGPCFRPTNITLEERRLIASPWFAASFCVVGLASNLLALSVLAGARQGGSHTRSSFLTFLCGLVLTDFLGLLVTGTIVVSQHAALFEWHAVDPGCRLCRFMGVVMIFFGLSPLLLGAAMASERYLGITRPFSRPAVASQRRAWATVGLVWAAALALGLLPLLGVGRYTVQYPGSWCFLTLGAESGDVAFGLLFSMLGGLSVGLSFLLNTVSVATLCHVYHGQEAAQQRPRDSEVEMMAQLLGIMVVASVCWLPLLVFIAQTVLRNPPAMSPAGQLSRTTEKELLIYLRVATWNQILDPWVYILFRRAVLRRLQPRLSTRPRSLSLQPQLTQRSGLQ
Protocol: (§1) Receptor expression and functional activity were monitored 48 hours after transfection. […] Heterologous competition studies involved concentrations of the indicated unlabeled ligands extending from 0.1 nM to 30 µM. After 30 min incubation at 25 °C, the reaction was stopped by aspiration of the medium, cells were washed with ice-cold PBS containing 0.2% (w/v) BSA and lysed in 0.5 N NaOH. Radioactivity was measured by liquid scintillation counting. Binding data were analyzed as described in Data and Statistical Analysis. Quantification of the total labeled inositol phosphates (IP) accumulation was performed using a conventional gravity flow column chromatography, as described previously, [19]. Briefly, the day before the assay, cells were labeled with 0,5 µCi of [myo-2-^3H]inositol (17 Ci/mmol) for 18–20 hours in serum-free, inositol-free DMEM containing 20 mM HEPES buffer, pH 7.4, and 0.5% (w/v) Albumax I. The day of the assay, media was replaced with serum-free, inositol-free DMEM containing 25 mM LiCl and cells stimulated for 30 min with the indicated agonists. After removal of the medium, cells were lysed with 10 mM formic acid and lysates were applied onto an anion exchange AG 1X-8 column, formate form, 200–400 mesh. The total IP fraction was then eluted with 2 M ammonium formate/formic acid buffer at pH 5 and radioactivity determined by liquid scintillation counting. Rescue experiments were performed essentially as above, except for a 18 hours incubation step with 1 µΜof […] followed by its removal by washing three times with ice-cold PBS containing 1 mM MgCl2 and 0.1 mM CaCl2 before starting the experiment.
(§2) All average results are presented as mean±S.E. When indicated, ANOVA followed by post-hoc test for multiple comparisons was performed. Data from radioligand binding were evaluated by a nonlinear, least-squares curve-fitting procedure using GraphPad Prism version 4, implemented with the n-ligand m-binding site model, as described in the LIGAND computer program. Concentration-response curves were evaluated using Prism 4, which use the four parameters logistic model as described in the ALLFIT program. Parameter errors are all expressed in percentage coefficient of variation (%CV) and calculated by simultaneous analysis of at least two different independent experiments performed in duplicate or triplicate. Parameter comparison has been performed on the base of the F test for extra sum of square principle. All curves shown are computer generated.
(§3) Thus, transfection conditions were adjusted to secure equivalent levels of receptor expression for WT and mutants as previously described, [17], [19]. […] All the experiments were conducted within this range of receptor expression, if not specified differently.

[2] = target: T2, E129V mutant human TP receptor (Homo sapiens, UniProt P21731, E129V); assay: [3H]SQ29,548 radioligand binding (mixed-type and heterologous competition), E129V mutant; details: HEK293 cells; for Ki: E129V, competition vs 1 nM [3H]SQ29,548, 25°C 30 min, value ±%CV; for Affinity ratio (Ki WT over Ki E129V): WT vs E129V
T2 construct: expressed in transfected cells; host or cells: HEK293
T2 sequence (P21731 1-343 E129V): T1 sequence (P21731 1-343) with E129V
Protocol: as §1, §2, §3

[3] = target: T1, WT human TP receptor; assay: Total inositol phosphate (IP) accumulation, WT receptor; assay type: cell-based; details: HEK293 cells; for Pharmacodynamic behaviour in total IP assay: SQ29,548 in absence or presence of Gαq overexpression
Protocol: as §1, §2

[4] = target: T2, E129V mutant human TP receptor; assay: Total inositol phosphate (IP) accumulation, E129V mutant; assay type: cell-based; details: HEK293 cells; for EC50 / Emax, total IP / Pharmacodynamic behaviour in total IP assay: E129V; for Activity ratio (EC50 WT over EC50 E129V), total IP: WT vs E129V; for Pharmacodynamic behaviour in total IP assay: SQ29,548 in absence or presence of Gαq overexpression
Protocol: as §1, §2

[5] = target: T1, WT human TP receptor; assay: BRET2 measurement of Gq protein activation, WT receptor; assay type: cell-based; details: HEK293 cells, value ±%CV; for EC50: Gαq-Rluc8/GFP10-Gγ2/Gβ1, 2 min ligand
Text: HEK 293 cells were co-transfected with vectors expressing the GFP^10-Gγ2, Gβ1, Gαq-Rluc8 and WT or E129V mutant of TP receptor to investigate direct G protein activation with an intramolecular bioluminescent resonance energy transfer (BRET^2) strategy. To avoid possible variations in the BRET signaling resulting from fluctuation in the relative expression levels of the energy donor and acceptor, we designed transfection conditions to maintain constant GFP^10 and Rluc8 expression and their ratios in each experimental set. Total fluorescence and luminescence were directly determined in an aliquot of the transfected cells using an Infinite F500 microplate reader (Tecan, Milan, Italy) as previously described. […] 48 hours after transfection, cells were washed once with PBS, detached, and resuspended in PBS+0.1% (w/v) glucose at room temperature. Cells were then distributed (80 µg of proteins per well) into a 96-well microplate (Wallac, Perkin Elmer, Monza, Italy) and incubated in the presence or absence of increasing concentrations of ligands for 2 min before the addition of the luciferase substrate Coelenterazine 400a (5 µM; Biotium, Hayward, CA). BRET signal between Rluc8 and GFP^10 was measured immediately after the addition of the Rluc substrate in the microplate reader. The BRET signal was calculated as the ratio of the light emitted by GFP^10 (510–540 nm) over the light emitted by Rluc8 (370–450 nm). The changes in BRET induced by the ligands were expressed as Òagonist-induced BRETÓ, obtained by subtracting the BRET signal detected in the presence of PBS by the BRET signal detected in the presence of the specific ligand.
as §2
This recorded real time conformational changes between the α and the βγ subunits within the Gq protein, where a decrease of the BRET signal provoked by agonist-induced receptor activation is indicative of a conformational reorganization leading the Gα-Gβγ interface to open, reflects the initial event of Gq protein activation, [23] (Figure 6A).

[6] = target: T2, E129V mutant human TP receptor; assay: BRET2 measurement of Gq protein activation, E129V mutant; assay type: cell-based; details: HEK293 cells; for EC50: E129V, Gαq-Rluc8/GFP10-Gγ2/Gβ1, 2 min ligand, value ±%CV; for Activity ratio (EC50 WT over EC50 E129V), BRET: WT vs E129V
Protocol: as §2

[7] = target: T3, double mutant E129V/E240V of human TP receptor (Homo sapiens, UniProt P21731, E129V/E240V); assay: Total inositol phosphate (IP) accumulation, E129V/E240V double mutant, rescue with SQ29,548; assay type: cell-based; details: cells exposed to 1 µM for 18 hours, removed by washing, then 1 µM U46619 for 30 min
T3 construct: expressed in transfected cells; host or cells: HEK293
T3 sequence (P21731 1-343 E129V/E240V): T1 sequence (P21731 1-343) with E129V, E240V
Protocol: Receptor expression and functional activity were monitored 48 hours after transfection. […] Heterologous competition studies involved concentrations of the indicated unlabeled ligands extending from 0.1 nM to 30 µM. After 30 min incubation at 25 °C, the reaction was stopped by aspiration of the medium, cells were washed with ice-cold PBS containing 0.2% (w/v) BSA and lysed in 0.5 N NaOH. Radioactivity was measured by liquid scintillation counting. Binding data were analyzed as described in Data and Statistical Analysis. Quantification of the total labeled inositol phosphates (IP) accumulation was performed using a conventional gravity flow column chromatography, as described previously, [19]. […] The total IP fraction was then eluted with 2 M ammonium formate/formic acid buffer at pH 5 and radioactivity determined by liquid scintillation counting. […]
All average results are presented as mean±S.E. When indicated, ANOVA followed by post-hoc test for multiple comparisons was performed. Data from radioligand binding were evaluated by a nonlinear, least-squares curve-fitting procedure using GraphPad Prism version 4, implemented with the n-ligand m-binding site model, as described in the LIGAND computer program. Concentration-response curves were evaluated using Prism 4, which use the four parameters logistic model as described in the ALLFIT program. […]

[8] = 30 min stimulation, no Gαq overexpression, value ±%CV
[9] = Gαq overexpression (5x), 30 min

Ki [1]: 12100 nM
Ki [2]: 4840 nM
Emax, total IP [3, 8]: 5856 dpm/well
EC50 [3, 9]: 1450 nM
Emax, total IP [3, 9]: 19670 dpm/well
Pharmacodynamic behaviour in total IP assay [3]: very weak partial agonist
EC50 [4, 9]: 747 nM
Emax, total IP [4, 9]: 26642 dpm/well
Emax, total IP ([4]; no Gαq overexpression, 30 min): 19423 dpm/well
Pharmacodynamic behaviour in total IP assay [4]: much stronger agonist
SMILES: CCCCC[C@H](O)/C=C/C1CC2CC(C1C/C=C\CCCC(=O)O)C2(C)C (stereo partly drawn) [PTA2, 9α,11α-(dimethyl)methylene-15S-hydroxy-11α-deoxy-11α-methylene-thromba-5Z,13E-dien-1-oic acid]

Ki [1]: 24.3 ± 18 nM
Ki [2]: 3.9 nM
Emax, total IP [3, 8]: 13099±14 dpm/well
EC50 ([3]; 30 min stimulation, value ±%CV): 25.1 ± 65 nM
EC50 ([4]; 30 min stimulation, value ±%CV): 2.99 nM
Emax, total IP ([4]; 30 min stimulation, value ±%CV): 17156±8 dpm/wel
EC50 [5]: 13 ± 27 nM
Emax, agonist-induced BRET [5]: −0.07±5
EC50 [6]: 3.96 nM
SMILES: O=C(O)CCCC=CCC1C2CCC(O2)C1C=CC(O)COc1ccc(I)cc1 (stereo not drawn) [I-BOP, [1S-[1α,2α(Z),3β(1E,3S*),4α]]-7-[3-[3-hydroxy-4-(4-iodophenoxy)-1-butenyl]-7-oxabicyclo[2.2.1]hept-2-yl]-5-heptenoic acid]

Pharmacodynamic behaviour in total IP assay [3]: pure antagonist
Pharmacodynamic behaviour in total IP assay [4]: pure antagonist
SMILES: O=C(O)CCC/C=C\C[C@@H]1[C@H](CNNC(=O)Nc2ccccc2)[C@H]2CC[C@@H]1O2 [SQ29,548, [1S-[1α,2α(Z),3α,4α]]-7-[3-[[2-[(phenylamino)carbonyl]-hydrazino]methyl]-7-oxabicyclo[2.2.1]hept-2-yl]-5-heptenoic acid]
Functional rescue of double mutant receptor activity [7]: able to rescue double mutant receptor functional activity, albeit not completely

More lines, now with the values behind:

SMILES: CCCCC[C@H](O)/C=C/[C@@H]1[C@H](C/C=C\CCCC(=O)O)[C@@H](O)C[C@H]1O [8-isoPGF2α, 8-iso Prostaglandin F2α]
Ki [1]: 12930 ± 19 nM
Ki [2]: 2908 ± 11 nM
Affinity ratio (Ki WT over Ki E129V) [2]: 4.4
Emax, total IP [3, 8]: 6744±42 dpm/well
EC50 ([3]; 30 min stimulation, value ±%CV): 4000 ± 68 nM
EC50 ([4]; 30 min stimulation, value ±%CV): 493 ± 53 nM
Emax, total IP ([4]; 30 min stimulation, value ±%CV): 15287±7 dpm/wel
Activity ratio (EC50 WT over EC50 E129V), total IP [4]: 8.1
EC50 [5]: 3940 ± 48 nM
Emax, agonist-induced BRET [5]: −0.05±9
EC50 [6]: 404 ± 31 nM
Activity ratio (EC50 WT over EC50 E129V), BRET [6]: 9.7

SMILES: CCCCC[C@H](O)/C=C/[C@H]1[C@H](O)CC(=O)[C@H]1C/C=C\CCCC(=O)O [8-isoPGE2, 8-iso Prostaglandin E2]
Ki [1]: 2916 ± 15 nM
Ki [2]: 547.6 ± 2 nM
Affinity ratio (Ki WT over Ki E129V) [2]: 5.3
Emax, total IP [3, 8]: 5087±21 dpm/well
EC50 ([3]; 30 min stimulation, value ±%CV): 1160 ± 72 nM
EC50 ([4]; 30 min stimulation, value ±%CV): 95.9 ± 60 nM
Emax, total IP ([4]; 30 min stimulation, value ±%CV): 12201±5 dpm/wel
Activity ratio (EC50 WT over EC50 E129V), total IP [4]: 12.0
EC50 [5]: 1980 ± 72 nM
Emax, agonist-induced BRET [5]: −0.02±42
EC50 [6]: 485 ± 46 nM
Activity ratio (EC50 WT over EC50 E129V), BRET [6]: 4.1
